# Assay results as given in patent US5322846A, “4-methylthiazole derivatives, their methods of preparation and the pharmaceutical compositions in which they are present” (Institut de Recherches Chimiques et Biologiques Appliquees …, priority 1990, dated 1994).
# Like-named read-outs stand apart in the source and are kept apart here.
# Legend:
# [1] = test system: lethal effect of norepinephrine; assay: Adrenolytic activity in vivo on the lethal effect of norepinephrine in rats; settings: for ED50: Rattus norvegicus, wake male rats, norepinephrine 0.4 mg.kg^-1 intravenous, prior administration of product, read-out: ED50 (dose which protects 50% of the animals); for adrenolytic activity in the whole animals: rats, in words
# Procedure: The intravenous injection of norepinephrine (0.4 mg.kg^-1) into wake male rats causes the death of 100% of the animals. The prior administration of a substance which has an alpha-blocking property makes it possible to reduce this toxicity.
# The results are expressed in the form of the 50% effective dose (ED50), i.e. the dose in mg.kg^-1 which protects 50% of the animals (Table 5).
# [2] = Acute toxicity in mice (oral, LD50); settings: mouse, in vivo, male mice, single dose, 14-day observation
# Procedure: The products were administered orally in a single dose to male mice with an average weight of 22 g. The mortality was recorded after a 14-day observation period.
# The results are expressed in the form of the 50% lethal dose (LD50), i.e. the theoretical dose in mg.kg^-1, administered orally, which causes the death of 50% of the animals.
# The majority of the molecules have an LD50 of more than 1 g.kg^-1. These are therefore products with a low toxicity after a single administration.
# [3] = test system: femoral blood pressure and heart rate; assay: Cardiovascular activity (blood pressure and heart rate) in anesthetized rats; type: in vivo; settings: for hypotensive potential compared with nicardipine: ED25 values 5 min after I.V. injection, in words; for Heart rate, maximum effect in % / ED25: I.V., pentobarbital-anesthetized rats; for ED25: Rattus norvegicus, iv, 25% drop in average blood pressure
# Procedure: The cardiovascular effects of three products were studied in rats anesthetized with pentobarbital and placed under artificial respiration. The femoral blood pressure and the heart rate are recorded by means of a GOULD-BRUSH apparatus.
# The products are administered intravenously in increasing doses. Three animals are tested per product. The dose which causes a 25% drop in average blood pressure (ED25) was evaluated for each product and compared with nicardipine 1 to 5 min after administration.
# The products have dose-dependent hypotensive effects but have little or no effect on the heart rate (Table 7). The most hypotensive in terms of the effective dose is B 1395 (ED25 of 0.004 mg.kg^-1).
# [4] = target: T1, postsynaptic alpha-adrenergic receptors (Rattus norvegicus, UniProt P43140); assay: Alpha-blocking activity towards norepinephrine on isolated rat vas deferens; type: biochemical; settings: -log of concentration requiring doubled norepinephrine; for Kb: read-out: pA2 (converted)
# T1 construct: causes contraction of the isolated vas deferens; from tissue; host or cells: isolated rat vas deferens
# T1 sequence (P43140 1-466): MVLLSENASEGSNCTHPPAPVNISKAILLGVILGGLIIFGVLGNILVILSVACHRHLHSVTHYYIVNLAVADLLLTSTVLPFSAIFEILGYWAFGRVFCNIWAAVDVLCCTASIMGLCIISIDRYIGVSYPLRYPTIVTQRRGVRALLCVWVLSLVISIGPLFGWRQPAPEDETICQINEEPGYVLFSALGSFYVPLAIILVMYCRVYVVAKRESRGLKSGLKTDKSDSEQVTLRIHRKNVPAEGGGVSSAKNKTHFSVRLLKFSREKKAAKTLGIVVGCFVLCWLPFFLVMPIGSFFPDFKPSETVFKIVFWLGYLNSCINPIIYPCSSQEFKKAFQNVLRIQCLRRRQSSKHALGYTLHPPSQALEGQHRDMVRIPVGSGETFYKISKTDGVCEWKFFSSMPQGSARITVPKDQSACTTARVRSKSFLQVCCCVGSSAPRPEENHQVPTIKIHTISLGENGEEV
# Procedure: Stimulation of the postsynaptic alpha-adrenergic receptors by norepinephrine causes contraction of the isolated vas deferens.
# The concentration of product in whose presence the norepinephrine concentration must be doubled in order to obtain the same effect as in the absence of said product is determined. The logarithm of this concentration, with the opposite sign, constitutes the pA2 of the products.
# Their alpha-blocking activity is high since it appears for low concentrations of between 10^-6 M and 10^-8 M.
# [5] = test system: hypertension induced by norepinephrine; assay: Inhibitory activity towards hypertension induced by norepinephrine in anesthetized rabbits; type: in vivo; settings: Oryctolagus cuniculus; anesthetized male rabbits, intravenous; read-out: ID50 (50% inhibition of norepinephrine-induced hypertension)
# Procedure: The blood pressure is measured by catheterization of the left carotid artery of anesthetized male rabbits. An increase in blood pressure is induced by an intravenous injection of norepinephrine. This hypertension can be inhibited by the prior administration of molecules with an alpha-blocking potential.
# These are presented in Table 6 in the form of the 50% inhibitory dose (ID50), which is defined as the dose of product which, when administered intravenously, causes a 50% inhibition of the hypertension induced by norepinephrine.
# [6] = 1 min, 1 minute, read-out: Blood pressure: Hypotension, ED25 at 1 minute
# [7] = 5 min, 5 minutes, read-out: Blood pressure: Hypotension, ED25 at 5 minutes
Structure (SMILES),ED50 [1] [mg/kg],adrenolytic activity in the whole animals [1],LD50 at 336 h [2] [mg/kg],hypotensive potential compared with nicardipine [3],"Heart rate, maximum effect in % [3] [%]","ED25 [3, 6] [mg/kg]","ED25 [3, 7] [mg/kg]",Kb [4] [nM],ED50 [5] [mg/kg],pA2 [4]
"Cc1ncsc1OCC(O)CN1CCN(c2ccccc2O)CC1 (stereo not shown) [B 1396, 3-(4-o-hydroxyphenylpiperazin-1-yl)-1-(4-methylthiazolyl-5-oxy)propan-2-ol]",0.6,very active,315,on a level with that of nicardipine,0,0.008,0.06,316,,
"CCCOc1ccccc1N1CCN(CCOc2scnc2C)CC1 [B 1342, 4-methyl-5-[2-(4-o-propoxyphenylpiperazin-1-yl)-ethoxy]thiazole]",4,,> 1000,,,,,16.2,7.3,
"Cc1ncsc1OCCN1CCN(c2ccc(F)cc2)CC1 [B 1227, 4-methyl-5-[2-(4-p-fluorophenylpiperazin-1-yl)ethoxy]thiazole]",30,,1000,,,,,> 1000,,
"CCCCCOc1ccccc1N1CCN(CC(O)COc2scnc2C)CC1 (stereo not shown) [B 1525, 3-(4-o-pentoxyphenylpiperazin-1-yl)-1-(4-methylthiazolyl-5-oxy)propan-2-ol]",1.27,very active,> 1000,,-8,0.04,0.04,7.94,,
"Cc1cc(Cl)ccc1N1CCN(CC(O)COc2scnc2C)CC1 (stereo not shown) [B 1406, 3-[4-(4-chloro-2-methylphenyl)piperazin-1-yl]-1-(4-methylthiazolyl-5-oxy)propan-2-ol]",8.1,,515,,,,,,,6.40
"Cc1cc(Cl)ccc1N1CCN(CCOc2scnc2C)CC1 [B 1259, 4-methyl-5-[2-[4-(4-chloro-2-methylphenyl)piperazin-1-yl]ethoxy]thiazole]",45,,630,,,,,1350,,
"Cc1cccc(Cl)c1N1CCN(CCOc2scnc2C)CC1 [B 1366, 4-methyl-5-[2-[4-(6-chloro-2-methylphenyl)piperazin-1-yl]ethoxy]thiazole]",100,,740,,,,,> 1000,,
CCCOc1ccccc1N1CCN(CCOc2scnc2C)CC1 [B 1242],,very active,,,,,,,,
"COc1ccccc1N1CCN(CCOc2scnc2C)CC1 [B 1223, 4-methyl-5-[2-(4-o-methoxyphenylpiperazin-1-yl)ethoxy]thiazole]",13,,> 1000,,,,,269,,
"Cc1ccc(Cl)cc1N1CCN(CCOc2scnc2C)CC1 [B 1313, 4-methyl-5-[2-[4-(5-chloro-2-methylphenyl)piperazin-1-yl]ethoxy]thiazole]",109,,770,,,,,81.3,,
"Cc1ncsc1OCCN1CCN(c2ccccc2)CC1 [B 1216, 4-methyl-5-[2-(4-phenylpiperazin-1-yl)ethoxy]thiazole]",33,,> 1000,,,,,89.1,> 3,
"Cc1ncsc1OCC(O)CN1CCN(c2cccc(Cl)c2)CC1 (stereo not shown) [B 1548, 3-(4-m-chlorophenylpiperazin-1-yl)-1-(4-methylthiazolyl-5-oxy)propan-2-ol]",15.8,very active,> 500,,,,,,,
"Cc1ncsc1OCC(O)CN1CCN(c2ccccc2OC(C)C)CC1 (stereo not shown) [B 1429, 3-(4-o-isopropoxyphenylpiperazin-1-yl)-1-(4-methylthiazolyl-5-oxy)propan-2-ol]",0.5,very active,428,,-5.1,0.016,0.03,4.57,,
"Cc1ncsc1OCCN1CCN(c2ccccc2O)CC1 [B 1430, 4-methyl-5-[2-(4-o-hydroxyphenylpiperazin-1-yl)-ethoxy]thiazole]",8.3,,305,,,,,229,,
"Cc1ncsc1OCCN1CCN(c2cccc(C(F)(F)F)c2)CC1 [B 1194, 4-methyl-5-[2-(4-m-trifluoromethylphenylpiperazin-1yl)ethoxy]thiazole]",200,,> 1000,,,,,2570,,
"Cc1ncsc1OCCN1CCN(c2ccccc2F)CC1 [B 1305, 4-methyl-5-[2-(4-o-fluorophenylpiperazin-1-yl)-ethoxy]thiazole]",35,,> 1000,,,,,81.3,3,
"COc1ccccc1N1CCN(CC(O)COc2scnc2C)CC1 (stereo not shown) [B 1510, 3-(4-o-methoxyphenylpiperazin-1-yl)-1-(4-methylthiazolyl-5-oxy)propan-2-ol]",0.52,very active,235,,-6,0.01,0.01,21.4,,
"Cc1ncsc1OCC(O)CN1CCN(c2ccccc2OCC(C)(C)C)CC1 (stereo not shown) [B 1562, 3-(4-o-neopentoxyphenylpiperazin-1-yl)-1-(4-methylthiazolyl-5-oxy)propan-2-ol]",,,> 1000,,,,,,,
"CCOc1cccc(N2CCN(CCOc3scnc3C)CC2)c1 [B 1325, 4-methyl-5-[2-(4-m-ethoxyphenylpiperazin-1-yl)-ethoxy]thiazole]",49,,> 1000,,,,,813,,
"COC(=O)C1=C(C)NC(C)=C(C(=O)OCCN(C)Cc2ccccc2)C1c1cccc([N+](=O)[O-])c1 (stereo not shown) [NICARDIPINE, nicardipine, reference compound]",,,,,0,0.0015,0.2,,,
"Cc1ncsc1OCC(O)CN1CCN(c2cccc(C(F)(F)F)c2)CC1 (stereo not shown) [B 1489, 3-(4-m-trifluoromethylphenylpiperazin-1-yl)-1-(4-methylthiazolyl-5-oxy)propan-2-ol]",59.7,,> 1000,,,,,,,
"Cc1ncsc1OCC(O)CN1CCN(c2ccccc2OCC(C)C)CC1 (stereo not shown) [B 1431, 3-(4-o-phenylpiperazin-1-yl)-1-(4-methylthiazolyl-5-oxy)propan-2-ol]",0.4,very active,1000,on a level with that of nicardipine,-12,0.1,0.24,7.41,,
"Cc1ncsc1OCC(O)CN1CCN(c2ccccc2OCCC(C)C)CC1 (stereo not shown) [B 1552, 3-(4-o-isopentoxyphenylpiperazin-1-yl)-1-(4-methylthiazolyl-5-oxy)propan-2-ol]",1.55,very active,> 1000,on a level with that of nicardipine,-7.9,0.12,0.25,22.9,,
